Assay results published in ChEMBL document CHEMBL1201862, “PubChem BioAssay data set” (2004).
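In this assay, cells in 96-well plates receive the compound at five concentrations for 48 hours. Endpoints are linearly interpolated between the surrounding concentrations. GI50: concentration for 50% inhibition of growth.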 Calls of active or inactive are those of the source. No stated cut-off is given here; in the data, active = GI50 up to about 1.1 µM and inactive = higher.

Legend:
Assay in all cases: NCI-60 cell line screen, 48 h
[1] = tested on: HOP-62
[2] = tested on: CCRF-CEM
[3] = tested on: HCT-15
[4] = tested on: CAKI-1
[5] = tested on: EKVX
[6] = tested on: SF-539
[7] = tested on: UACC-62
[8] = tested on: HOP-92
[9] = tested on: OVCAR-5
[10] = tested on: Malme-3M
[11] = tested on: PC-3
[12] = tested on: SK-MEL-5
[13] = tested on: LOX IMVI
[14] = tested on: SK-MEL-2
[15] = tested on: OVCAR-8
[16] = tested on: OVCAR-3
[17] = tested on: NCI-H460
[18] = tested on: HCT-116
[19] = tested on: SF-268
[20] = tested on: SNB-75

Row | SMILES | GI50 [1] | GI50 [2] | GI50 [3] | GI50 [4] | GI50 [5] | GI50 [6] | GI50 [7] | GI50 [8] | GI50 [9] | GI50 [10] | GI50 [11] | GI50 [12] | GI50 [13] | GI50 [14] | GI50 [15] | GI50 [16] | GI50 [17] | GI50 [18] | GI50 [19] | GI50 [20]
1 | CC(=O)N[C@@H](Cc1ccc(O)cn1)C(=O)NCc1ccc(Cl)cc1 | > 100 µM (inactive) | 31.5 µM (inactive) | > 100 µM | > 100 µM (inactive) | > 100 µM (inactive) | > 100 µM (inactive) | > 100 µM (inactive) | 94.4 µM (inactive) | > 100 µM (inactive) | > 100 µM (inactive) | > 100 µM (inactive) | > 100 µM (inactive) | > 100 µM (inactive) | > 100 µM (inactive) | > 100 µM (inactive) | > 100 µM (inactive) | > 100 µM (inactive) | > 100 µM (inactive) | – | –
2 | CN(C)CCNC(=O)Cn1ccc(=O)c2ccc([N+](=O)[O-])cc21 | > 100 µM (inactive) | > 100 µM (inactive) | 73.8 µM | > 100 µM (inactive) | > 100 µM (inactive) | > 100 µM (inactive) | > 100 µM (inactive) | > 100 µM (inactive) | > 100 µM (inactive) | 44.7 µM (inactive) | > 100 µM (inactive) | > 100 µM (inactive) | > 100 µM (inactive) | > 100 µM (inactive) | – | 38.2 µM (inactive) | > 100 µM (inactive) | > 100 µM (inactive) | > 100 µM (inactive) | –
3 | CCN1C2=NCCN2S(=O)(=O)c2ccccc21 | > 100 µM (inactive) | > 100 µM (inactive) | > 100 µM | > 100 µM (inactive) | > 100 µM (inactive) | > 100 µM (inactive) | > 100 µM (inactive) | > 100 µM (inactive) | > 100 µM (inactive) | – | > 100 µM (inactive) | > 100 µM (inactive) | > 100 µM (inactive) | > 100 µM (inactive) | > 100 µM (inactive) | > 100 µM (inactive) | > 100 µM (inactive) | > 100 µM (inactive) | > 100 µM (inactive) | –
4 | C=CC(c1ccccc1)C1(O)c2cccc(O)c2C(=O)c2c(O)cccc21 (stereo not drawn) | 17.3 µM (inactive) | – | 10.8 µM | 16.7 µM (inactive) | 16.3 µM (inactive) | 29.3 µM (inactive) | – | 15.9 µM (inactive) | 22.1 µM (inactive) | – | 13.9 µM (inactive) | 17.3 µM (inactive) | 16.4 µM (inactive) | 12.4 µM (inactive) | 19.7 µM (inactive) | 18 µM (inactive) | 17.3 µM (inactive) | 11.5 µM (inactive) | 17.3 µM (inactive) | 20.5 µM (inactive)
5 | O=C1CCSSCCC(=O)Nc2ccccc2N1 | > 100 µM (inactive) | > 100 µM (inactive) | > 100 µM | > 100 µM (inactive) | > 100 µM (inactive) | > 100 µM (inactive) | > 100 µM (inactive) | > 100 µM (inactive) | > 100 µM (inactive) | > 100 µM (inactive) | > 100 µM (inactive) | > 100 µM (inactive) | > 100 µM (inactive) | > 100 µM (inactive) | > 100 µM (inactive) | > 100 µM (inactive) | > 100 µM (inactive) | > 100 µM (inactive) | > 100 µM (inactive) | –
6 | O=c1[nH]nc(Nc2ccccc2)c2nnn(Cc3ccccc3)c12 | 4.52 µM (inactive) | > 100 µM (inactive) | > 100 µM | > 100 µM (inactive) | > 100 µM (inactive) | 54.2 µM (inactive) | > 100 µM (inactive) | 57 µM (inactive) | > 100 µM (inactive) | – | > 100 µM (inactive) | > 100 µM (inactive) | > 100 µM (inactive) | > 100 µM (inactive) | 19.2 µM (inactive) | – | 85.3 µM (inactive) | 83.9 µM (inactive) | > 100 µM (inactive) | 18.7 µM (inactive)
